{"source": "paper PMC12259267", "about": "“Disruption of the KLHL37–N-Myc complex restores N-Myc degradation and arrests neuroblastoma growth in mouse models” (The Journal of Clinical Investigation, 2025)", "molecular_target": "T1, KLHL37 (Homo sapiens, UniProt O14682)", "T1 construct": "gene ENC1; recombinant KLHL37-His (full-length cDNA, pET-28a, E. coli)", "T1 sequence (O14682 1-589)": "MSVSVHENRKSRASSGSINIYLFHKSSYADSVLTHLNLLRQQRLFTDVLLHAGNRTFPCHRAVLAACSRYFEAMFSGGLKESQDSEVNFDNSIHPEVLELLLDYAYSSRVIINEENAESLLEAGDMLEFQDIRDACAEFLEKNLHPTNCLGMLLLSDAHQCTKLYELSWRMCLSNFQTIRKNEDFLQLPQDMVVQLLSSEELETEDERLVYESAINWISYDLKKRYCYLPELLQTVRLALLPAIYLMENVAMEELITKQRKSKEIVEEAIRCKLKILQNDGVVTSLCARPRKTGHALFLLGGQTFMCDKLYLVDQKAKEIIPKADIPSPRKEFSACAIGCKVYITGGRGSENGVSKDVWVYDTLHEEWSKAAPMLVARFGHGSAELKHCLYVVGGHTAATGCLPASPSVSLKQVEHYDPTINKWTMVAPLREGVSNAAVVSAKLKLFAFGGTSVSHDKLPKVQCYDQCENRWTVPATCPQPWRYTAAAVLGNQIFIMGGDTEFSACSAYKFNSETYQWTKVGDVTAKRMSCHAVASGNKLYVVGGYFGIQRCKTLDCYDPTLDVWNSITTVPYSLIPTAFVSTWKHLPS", "test": "SPR (Biacore X100, KLHL37-His immobilized on CM5 chip)", "type": "binding"}
{"smiles": "CC1(C)CC[C@]2(NC(=O)C(C)(F)F)CC[C@]3(C)[C@H](C(=O)C=C4[C@@]5(C)C=C(C#N)C(=O)C(C)(C)[C@@H]5CC[C@]43C)[C@@H]2C1", "note": "[RTA-408]", "values": [{"measurement": "Kd", "result": 15.2, "unit": "µM"}]}
